From patent publication US20220324815A1, “2-PHENOXY-PYRIMIDINE DERIVATIVES AS HERBICIDAL COMPOUNDS” (SYNGENTA CROP PROTECTION AG, priority 2019, published 2022)

What was measured:
Type in all cases: in vivo
Details in all cases: 250 g/ha unless otherwise stated, evaluated after 13 days, five-point scale
[1] = system: Amaranthus retoflexus (AMARE); assay: Test 1 glasshouse herbicide test, post-emergence application (Table B1)
Method in brief: (§1)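 Score is % phytotoxicity after 13 days, binned 1 (0–20%) to 5 (81–100%). Compound given at 250 g/ha unless stated, as acetone/water (50:50) spray with 0.5% Tween 20, one day post-sowing (pre-emergence) or after 8 days' growth (post-emergence); glasshouse at 24/16 °C day/night, 14 h light, 65% humidity.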

[2] = system: Ipomoea hederacea (IPOHE); assay: as above
Method in brief: as §1

[3] = system: Echinochloa crus-galli (ECHCG); assay: as above
Method in brief: as §1

Setaria faberi (SETFA) [4] = assay: as above
Method in brief: as §1

[5] = system: Amaranthus retoflexus (AMARE); assay: Test 1 glasshouse herbicide test, pre-emergence application (Table B2)
Method in brief: as §1

[6] = system: Ipomoea hederacea (IPOHE); assay: as above
Method in brief: as §1

[7] = system: Echinochloa crus-galli (ECHCG); assay: as above
Method in brief: as §1

Setaria faberi (SETFA) [8] = assay: as above
Method in brief: as §1

SMILES | % phytotoxicity AMARE, post-emergence application [1] | % phytotoxicity IPOHE, post-emergence application [2] | % phytotoxicity ECHCG, post-emergence application [3] | % phytotoxicity SETFA, post-emergence application (Setaria faberi (SETFA) [4]) | % phytotoxicity AMARE, pre-emergence application [5] | % phytotoxicity IPOHE, pre-emergence application [6] | % phytotoxicity ECHCG, pre-emergence application [7] | % phytotoxicity SETFA, pre-emergence application (Setaria faberi (SETFA) [8])
N#Cc1cccc(Oc2ncc(Cl)cn2)c1S(=O)(=O)CCC(F)F [Compound A97] | 5 (5=81 to 100%) | 4 (4=61 to 80%) | 4 (4=61 to 80%) | 2 (2=21 to 40%) | 5 (5=81 to 100%) | 5 (5=81 to 100%) | 4 (4=61 to 80%) | 4 (4=61 to 80%)
N#Cc1cccc(Oc2ncc(Cl)cn2)c1[S+]([O-])CCC(F)F (stereo not shown) [Compound A98] | 5 (5=81 to 100%) | 4 (4=61 to 80%) | 4 (4=61 to 80%) | 4 (4=61 to 80%) | 5 (5=81 to 100%) | 5 (5=81 to 100%) | 5 (5=81 to 100%) | 5 (5=81 to 100%)
N#Cc1cccc(Oc2ncc(Cl)cn2)c1SCCC(F)F [Compound A99] | 5 (5=81 to 100%) | 4 (4=61 to 80%) | 5 (5=81 to 100%) | 4 (4=61 to 80%) | 5 (5=81 to 100%) | 5 (5=81 to 100%) | 5 (5=81 to 100%) | 5 (5=81 to 100%)
N#Cc1cccc(Oc2ncc(Cl)cn2)c1SCCCC(F)F [Compound A100] | 5 (5=81 to 100%) | 5 (5=81 to 100%) | 5 (5=81 to 100%) | 4 (4=61 to 80%) | 5 (5=81 to 100%) | 5 (5=81 to 100%) | 5 (5=81 to 100%) | 5 (5=81 to 100%)
N#Cc1cccc(Oc2ncc(Cl)cn2)c1[S+]([O-])CCCC(F)F (stereo not shown) [Compound A101] | 5 (5=81 to 100%) | 4 (4=61 to 80%) | 4 (4=61 to 80%) | 4 (4=61 to 80%) | 5 (5=81 to 100%) | 5 (5=81 to 100%) | 5 (5=81 to 100%) | 5 (5=81 to 100%)
N#Cc1cccc(Oc2ncc(Cl)cn2)c1S(=O)(=O)CCCC(F)F [Compound A102] | 5 (5=81 to 100%) | 4 (4=61 to 80%) | 4 (4=61 to 80%) | 4 (4=61 to 80%) | 5 (5=81 to 100%) | 5 (5=81 to 100%) | 5 (5=81 to 100%) | 5 (5=81 to 100%)
O=S(=O)(CCCC(F)F)c1c(Cl)cccc1Oc1ncc(Cl)cn1 [Compound A103] | 4 (4=61 to 80%) | 2 (2=21 to 40%) | 1 (1=0 to 20%) | 1 (1=0 to 20%) | 4 (4=61 to 80%) | 4 (4=61 to 80%) | 2 (2=21 to 40%) | 2 (2=21 to 40%)
[O-][S+](CCCC(F)F)c1c(Cl)cccc1Oc1ncc(Cl)cn1 (stereo not shown) [Compound A104] | 5 (5=81 to 100%) | 5 (5=81 to 100%) | 5 (5=81 to 100%) | 5 (5=81 to 100%) | 5 (5=81 to 100%) | 5 (5=81 to 100%) | 5 (5=81 to 100%) | 5 (5=81 to 100%)
